Measurements: patent publication US20130345392A1, “EDN3-LIKE PEPTIDES AND USES THEREOF” (Pfizer Inc, priority 2011, published 2013)
Like-named read-outs stand apart in the source and are kept apart here. Where a SMILES comes first, the peptide text is derived from it. Bridges are numbered along the chain shown (N, C = ends). Where no end group is shown, it is not given here.

T1: human endothelin ETA receptor (human, UniProt P25101 21-427)
T1 construct: whole, on cells; Assayed as membrane homogenates (10 ug protein) of transfected CHO cells; also called endothelin receptor A
T1 sequence (looked up): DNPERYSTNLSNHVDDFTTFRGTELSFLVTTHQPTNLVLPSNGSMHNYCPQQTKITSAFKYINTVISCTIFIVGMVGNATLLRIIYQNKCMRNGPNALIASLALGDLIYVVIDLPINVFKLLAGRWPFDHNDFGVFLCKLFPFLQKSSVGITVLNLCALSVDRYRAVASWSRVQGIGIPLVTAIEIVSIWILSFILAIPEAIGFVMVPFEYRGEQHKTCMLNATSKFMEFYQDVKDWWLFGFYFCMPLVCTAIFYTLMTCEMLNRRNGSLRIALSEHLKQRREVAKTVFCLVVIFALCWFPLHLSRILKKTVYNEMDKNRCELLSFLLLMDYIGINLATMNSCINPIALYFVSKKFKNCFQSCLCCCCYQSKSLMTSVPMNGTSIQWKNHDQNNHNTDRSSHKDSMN

T2: human endothelin ETB receptor (human, UniProt P24530 27-442)
T2 construct: whole, on cells; Assayed as membrane homogenates (2.4 ug protein) of transfected CHO cells; also called endothelin receptor B
T2 sequence (looked up): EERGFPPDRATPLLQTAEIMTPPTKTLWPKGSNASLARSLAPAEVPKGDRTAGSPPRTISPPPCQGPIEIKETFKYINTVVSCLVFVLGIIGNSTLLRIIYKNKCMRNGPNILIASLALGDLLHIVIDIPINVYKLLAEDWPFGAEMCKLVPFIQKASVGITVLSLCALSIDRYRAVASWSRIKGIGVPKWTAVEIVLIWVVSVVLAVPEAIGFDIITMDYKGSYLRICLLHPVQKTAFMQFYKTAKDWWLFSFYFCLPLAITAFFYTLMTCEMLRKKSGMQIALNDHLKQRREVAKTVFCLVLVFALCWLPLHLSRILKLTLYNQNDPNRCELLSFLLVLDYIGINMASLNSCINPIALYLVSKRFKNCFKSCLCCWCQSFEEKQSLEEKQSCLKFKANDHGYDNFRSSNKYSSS


Tests used:
GLUTag cells = conditions: for GLP-1 secretion from GLUTag cells, result in words: endothelin-3 at highest concentration 10 μM
rat perfused colon = test: GLP-1 secretion from rat perfused colon ex vivo; conditions: forskolin (1 μM), rat perfused colon, vs baseline, p=0.0398
Procedure: Ex vivo rat colon vascular perfusion experiments were performed as previously described (Plaisancié, 1995). Male Sprague-Dawley rats (300 g) were purchased from Charles River and fed ad libitum with Purina Lab Chow #5001 (WF Fisher and Son Inc Sommerville, N.J.). Rats were decapitated and the abdomen was opened with a midline incision. […] The arterial vascular perfusion started immediately with an oxygenated Krebs-Henseleit buffer containing-solution at a rate of 2 mL/minute [solution: Krebs-Henseleit buffer (25.0 mM NaHCO3; 118 mM NaCl; 4.7 mM KCl; 1.2 mM MgSO4; 1.2 mM KH2PO4; 2.5 mM CaCl2) with 3% BSA, 5 mM glucose, MEM essential and nonessential amino acids (pH 7.4)]. The colonal lumen was perfused at the rate of 0.5 mL/minute. The remaining colon and small intestine were removed after the ligation of their respective supplying vessels. After the colon preparation was transferred to a 37° C. tissue bath, the portal effluent was collected as 5 minute fractions. The fraction aliquots were frozen at −20° C. for subsequent determinations of GLP-1. EDN3 97-140 was dissolved at 200 nM in vascular perfusion solution and perfused into the artery after a 30 minute baseline collection. […] The GLP-1 detection assay was carried out by using a commercial kit for active GLP-1 (7-36) amide according to the manufacturer's instructions (Millipore). GLP-1 release data was normalized to % baseline using the average of fractions collected prior to treatment as the baseline value and the peak data following each treatment. The average data across 3 independent experiments was reported comparing EDN3 97-140 versus control (baseline) and forskolin versus control (baseline). Statistical analysis was performed by one sided Satterwaite's test due to unequal variance and the Holm test was applied to account for multiple comparisons.

[1] = test system: isolated rat aortic rings; conditions: read-out: EC50, concentration-dependent contractions, n=4-6
Procedure: The thoracic aorta with endothelium intact was isolated from male Wistar rats (300-500 g), cut into 3 mm rings, and placed in tissue baths with oxygenated Krebs-Henseleit buffer containing (in mM): KCl (4.7), CaCl2-2H2O (2.5), MgSO4-7H2O (1.2), KH2PO4 (1.2), D-glucose (10), NaHCO3 (25), NaCl (118). Tissues were placed under a 3 g basal tension and allowed to equilibrate for 1 hour at 37° C.

[2] = molecular target: T1, human endothelin ETA receptor; test: radioligand competition ([125I]endothelin-1) on membranes of CHO cells transfected with human ETA
Procedure: (§1) To evaluate the affinity of EDN3 97-140 for the agonist site of the human endothelin ETA receptor, radioligand binding with CHO cells transfected with the ETA receptor was used. […] Following incubation, the samples are filtered rapidly under vacuum through glass fiber filters (GF/B, Packard) presoaked with 0.1% BSA and rinsed several times with an ice-cold buffer containing 50 mM Tris-HCl and 150 mM NaCl using a 96-sample cell harvester (Unifilter, Packard). Filters were dried and then counted for radioactivity in a scintillation counter (Topcount, Packard) using a scintillation cocktail (Microscint 0, Packard).

[3] = molecular target: T2, human endothelin ETB receptor; test: radioligand competition ([125I]endothelin-1) on membranes of CHO cells transfected with human ETB
Procedure: as §1, with “ETB receptor in transfected CHO cells,” for “ETA receptor,”, “binding” for “binding with CHO cells transfected with the ETA receptor”, “were” for “are”, “The filters” for “Filters”, “dried” for “dried and”

| Molecule | EC50 (GLUTag cells) | also measured |
| --- | --- | --- |
| CC[C@H](C)[C@H](NC(=O)[C@H](Cc1c[nH]c2ccccc12)NC(=O)[C@@H](NC(=O)[C@@H](NC(=O)[C@H](CC(=O)O)NC(=O)[C@H](CC(C)C)NC(=O)[C@H](Cc1c[nH]cn1)NC(=O)[C@H](CS)NC(=O)[C@H](Cc1ccc(O)cc1)NC(=O)[C@H](Cc1ccc(O)cc1)NC(=O)[C@@H](NC(=O)[C@H](CS)NC(=O)[C@H](CCC(=O)O)NC(=O)[C@H](CCCCN)NC(=O)[C@H](CC(=O)O)NC(=O)[C@H](CCCCN)NC(=O)[C@@H](N)Cc1ccc(O)cc1)C(C)C)[C@@H](C)CC)[C@@H](C)CC)C(=O)N[C@@H](CC(N)=O)C(=O)N[C@H](C(=O)N1CCC[C@H]1C(=O)N[C@@H](CCC(=O)O)C(=O)N[C@@H](CCC(N)=O)C(N)=O)[C@@H](C)O [EDN3 102-123] (H-YKDKECVYYCHLDIIWINTPEQ-NH2; N-terminus assumed) | > 10000 nM | – |
| C=C[C@@]1(C)CC(=O)[C@]2(O)[C@@]3(C)[C@@H](O)CCC(C)(C)[C@@H]3[C@H](O)[C@H](OC(C)=O)[C@@]2(C)O1 [forskolin, reference compound] | – | stimulation of GLP-1 release, positive control (rat perfused colon): 1717±350% |
| CTAFTYKDKEAVYYCHLDIIWINTPEQTVPYGLSNYRESLRGKR-NH2 (disulfide 1-15) [EDN3 97-140 C99A, C107A] | 1600 nM | – |
| CTCFTYKDKECVYYCHLDIIFINTPEQTVPYGLSNYRESLRGKR-NH2 (disulfide 1-15, 3-11 (inferred)) [EDN3 97-140 W117F] | 731 nM | GLP-1 secretion from GLUTag cells, result in words (GLUTag cells): does not cause a loss of GLP-1 secretagogue function |
| CTCFTYKDKECVYYCHLDIIHINTPEQTVPYGLSNYRESLRGKR-NH2 (disulfide 1-15, 3-11 (inferred)) [EDN3 97-140 W117H] | > 1000 nM | – |
| CTCFTYKDKECVYYCHLDIIWINTPEQTVPYGLSNYRESLR-NH2 (disulfide 1-15, 3-11 (inferred)) [EDN3 97-137] | 1720 nM | GLP-1 secretion from GLUTag cells, result in words (GLUTag cells): partial loss of activity |
| CTCFTYKDKECVYYCHLDIIWINTPEQTVPYGLSNYRESLRGKR-OH (disulfide 1-15, 3-11 (inferred)) [EDN3 97-140 free acid] | 2000 nM | – |
| INTPEQTVPYGLSNYRESLRGKR-NH2 [EDN3 118-140] | > 10000 nM | – |
| YYAHLDIIAINTPEQTVPYGLSNYRESLRGKR-NH2 [EDN3 109-140 C111A W117A] | > 10000 nM | – |
| YYSHLDIIWINTPEQTVPYGLSNYRESLRGKR-NH2 [EDN3 109-140 C111S] | > 10000 nM | – |
| endothelin-1 [reference compound] | – | EC50 [1]: 2.7 ± 1 nM |
| CTCFTYKDKECVYYCHLDIIWINTPEQTVPYGLSNYRESLRGKR-NH2 (not fully specified; cysteine pairing not given here, also called long endothelin-3; 44 amino acid, C-terminally amidated endothelin-like peptide) [EDN3 97-140] | – | binding result [2]: no binding (tested: up to 3 µM); binding result [3]: no binding (tested: up to 3 µM) |

Second part, led by results:

| EC50 (GLUTag cells) | Molecule | also measured |
| --- | --- | --- |
| > 10000 nM | CC[C@H](C)[C@H](NC(=O)[C@H](CC(=O)O)NC(=O)[C@H](CC(C)C)NC(=O)[C@H](Cc1c[nH]cn1)NC(=O)[C@@H]1CSSC[C@H](N)C(=O)N[C@@H]([C@@H](C)O)C(=O)N[C@H]2CSSC[C@H](NC(=O)[C@H](CCC(=O)O)NC(=O)[C@H](CCCCN)NC(=O)[C@H](CC(=O)O)NC(=O)[C@H](CCCCN)NC(=O)[C@H](Cc3ccc(O)cc3)NC(=O)[C@H]([C@@H](C)O)NC(=O)[C@H](Cc3ccccc3)NC2=O)C(=O)N[C@@H](C(C)C)C(=O)N[C@@H](Cc2ccc(O)cc2)C(=O)N[C@@H](Cc2ccc(O)cc2)C(=O)N1)C(=O)N[C@H](C(=O)N[C@@H](Cc1c[nH]c2ccccc12)C(=O)O)[C@@H](C)CC [endothelin-3, reference compound] | GLP-1 secretion from GLUTag cells, result in words (GLUTag cells): no effect; GLP-1 secretion from GLUTag cells, result in words (GLUTag cells; listed as Endothelin-3 (EDN3 97-117)): not sufficient to elicit a GLP-1 release |
| 2700 nM | ATCFTYKDKECVYYAHLDIIWINTPEQTVPYGLSNYRESLRGKR-NH2 (disulfide 3-11) [EDN3 97-140 C97A, C111A] | – |
| > 10000 nM | FTYKDKECVYYCHLDIIWINTPEQTVPYGLSNYRESLRGKR-NH2 (cysteines drawn unpaired) [EDN3 100-140] | GLP-1 secretion from GLUTag cells, result in words (GLUTag cells): do not measurably stimulate GLP-1 secretion |
| > 10000 nM | FTYKDKESVYY-NH2 [EDN3 100-110] | – |
| > 10000 nM | STSFTYKDKESVYYSHLDIIWINTPEQTVPYGLSNYRESLRGKR-NH2 [EDN3 97-140 C->S mutant] | – |
| > 10000 nM | TCFTYKDKECVYYCHLDIIWINTPEQTVPYGLSNYRESLRGKR-NH2 (cysteines drawn unpaired) [EDN3 98-140] | GLP-1 secretion from GLUTag cells, result in words (GLUTag cells): do not measurably stimulate GLP-1 secretion |
